Laboratory results: patent US20230192699A1, “COMPOUNDS AS CASEIN KINASE INHIBITORS” (GRITSCIENCE BIOPHARMACEUTICALS CO., LTD., priority 2020, published 2023)
pIC50: −log10 of the molar value.

How the values were obtained:
wild type CK1δ = wild type CK1δ (Homo sapiens, UniProt P48730); test: CK1δ kinase assay (Kinase-Glo); type: biochemical; conditions: 10 μM ATP, 2 nM wild type CK1δ, 85 min at 25° C.; read-out: CK1δ inhibition (IC50)
Experimental: The CK1δ kinase assay was performed with a buffer (40 μL, pH 7.5) containing 50 mM Tris, 10 mM MgCl2, 1 mM dithiothreitol, 100 μg/mL BSA with 10 μM ATP, 2 nM wild type CK1δ, and 42 μM peptide substrate PLSRTLpSVASLPGL (Flotow et al., 1990) in the presence of 1 μL of a CK1δ inhibitor (e.g., a compound of the present application) or 4% DMSO (e.g., as control). The reaction mixture was incubated for 85 min at 25° C.; detection was carried out as described for the Kinase-Glo Assay (Promega). Luminescent output was measured on the Perkin Elmer Envision plate reader (PerkinElmer, Waltham, Mass.).

[1] = Assay of intrinsic clearance in liver microsomes (human); type: in vitro ADME; conditions: Human liver microsomes 0.5 mg/mL, 2 μM compound, 37° C.; for microsomal CLint at 2 μM: read-out: in vitro CLint (μL/min/mg protein); for half-life at 2 μM: read-out: in vitro t1/2
Experimental: (§1) 1. The master solution was prepared according to Table 11.
(§2) 2. Three separated experiments were performed as follows. a) With NADPH: 10 μL of 20 mg/mL liver microsomes and 40 μL of 10 mM NADPH were added to the incubations. The final concentrations of microsomes and NADPH were 0.5 mg/mL and 1 mM, respectively. b) Without NADPH: 10 μL of 20 mg/mL liver microsomes and 40 μL of ultra-pure H2O were added to the incubations. The final concentration of microsomes was 0.5 mg/mL. c) Heat-inactivated microsomes without NADPH: 10 μL of 20 mg/mL heat-inactivated liver microsomes and 40 μL of ultra-pure H2O were added to the incubations. The final concentration of microsomes was 0.5 mg/mL.
(§3) 3. The reaction was started with the addition of 4 μL of 200 μM test compound solution or control compound solution at the final concentration of 2 μM and carried out at 37° C.
(§4) 4. Aliquots of 50 μL were taken from the reaction solution at 0, 15, 30, 45 and 60 min. The reaction was stopped by the addition of 4 volumes of cold acetonitrile with IS (100 nM alprazolam, 200 nM labetalol, 200 nM caffeine and 2 μM ketoprofen). Samples were centrifuged at 3, 220 g for 40 minutes.
(§5) Peak areas were determined from extracted ion chromatograms. The slope value, k, was determined by linear regression of the natural logarithm of the remaining percentage of the parent drug vs. incubation time curve.
(§6) The in vitro half-life (in vitro t1/2) was determined from the slope value:
(§7) Conversion of the in vitro t1/2 (min) into the in vitro intrinsic clearance (in vitro CLint, in μL/min/mg protein) was done using the following equation (mean of duplicate determinations):
(§8) in vitro CLint=(0.693 * volume of incubation(μl))/(in vitro t1/2 * amount of proteins(mg))

[2] = Assay of intrinsic clearance in liver microsomes (mouse); type: in vitro ADME; conditions: Mouse liver microsomes 0.5 mg/mL, 2 μM compound, 37° C.; for microsomal CLint at 2 μM: read-out: in vitro CLint (μL/min/mg protein); for half-life at 2 μM: read-out: in vitro t1/2
Experimental: as §1, §2, §3, §4, §5, §6, §7, §8

in vitro = conditions: human, Caco-2, pH 7.4
Experimental: 1) 50 μL and 25 mL of cell culture medium were added to each well of the Transwell insert and reservoir, respectively. And then the HTS transwell plates were incubated at 37° C., 5% CO2 for 1 hour before cell seeding.
2) Caco-2 cells were diluted to 6. 86×10^5 cells/mL with culture medium and 50 μL of cell suspension were dispensed into the filter well of the 96-well HTS Transwell plate. Cells were cultivated for 14-18 days in a cell culture incubator at 37° C., 5% CO2, 95% relative humidity. Cell culture medium was replaced every other day, beginning no later than 24 hours after initial plating.
10 mM stock solutions of test compounds were prepared in DMSO. The stock solutions of positive controls were prepared in DMSO at the concentration of 10 mM. Digoxin and propranolol were used as control compounds in this assay.
1) Medium was removed from the reservoir and each Transwell insert and replaced with prewarmed fresh culture medium.
2) Transepithelial electrical resistance (TEER) across the monolayer was measured using Millicell Epithelial Volt-Ohm measuring system (Millipore, USA).
The TEER value was calculated according to the following equation: TEER measurement (ohms) * Area of membrane (cm^2)=TEER value (ohm·cm^2) TEER value should be greater than 230 ohm·cm^2, which indicates the well-qualified Caco-2 monolayer.
1) The Caco-2 plate was removed from the incubator and washed twice with pre-warmed HMS (10 mM HEPES, pH 7.4), and then incubated at 37° C. for 30 minutes.
2) The stock solutions of control compounds and test compounds were diluted in DMSO to get 1 mM solutions and then diluted with HMS (10 mM HEPES, pH 7.4) get 5 μM working solutions. The final concentration of DMSO in the incubation system was 0.5%.
3) To determine the rate of drug transport in the apical to basolateral direction. 125 μL of 5 μM working solution of control compound and test compounds were added to the Transwell insert (apical compartment), and transfer 50 μL sample (D0 sample) immediately from the apical compartment to a new 96-well plate. Fill the wells in the receiver plate (basolateral compartment) with 235 μL of MSS (10 mM HEPES, pH 7.4).
4) To determine the rate of drug transport in the basolateral to apical direction. 285 μL of 5 μM working solution of control compound and test compounds were to the receiver plate wells (basolateral compartment), and transfer 50 μL sample (D0 sample) immediately from the basolateral compartment to a new 96-well plate. Fill the wells in the Transwell insert (apical compartment) with 75 μL of MSS (10 mM HEPES, pH 7.4). The assay was performed in duplicate.
5) The plates were incubated at 37° C. for 2 hours.
6) At the end of the incubation, 50 μL samples from donor sides (apical compartment for Ap→Bl flux, and basolateral compartment for Bl→Ap) and receiver sides (basolateral compartment for Ap→Bl flux, and apical compartment for Bl→Ap) were transferred to wells of a new 96-well plate, followed by the addition of 4 volume of cold methanol containing appropriate internal standards (IS). Samples were Vortexed for 5 minutes and then centrifuged at 3,220 g for 40 minutes. An aliquot of 100 μL of the supernatant was mixed with an appropriate volume of ultra-pure water before LC-MS/MS analysis.
7) To determine the Lucifer Yellow leakage after 2-hour transport period, stock solution of Lucifer yellow was prepared in water and diluted with HMS (10 mM HEPES, pH 7.4) to reach the final concentration of 100 μM. 100 μL of the Lucifer yellow solution was added to each Transwell insert (apical compartment), followed by filling the wells in the receiver plate (basolateral compartment) with 300 μL of HBSS (10 mM HEPES, pH 7.4). The plates were Incubated at 37° C. for 30 mins. 80 μL samples were removed directly from the apical and basolateral wells (using the basolateral access holes) and transferred to wells of new 96 wells plates.

[3] = tested on: MDA-MB-231 cells (breast cancer cells); test: Transwell cell migration assay; type: cell-based; conditions: MDA-MB-231, 24 h; for relative migration (%) of cells: FIG. 61; for migrated cells: FIGS. 62-67
Experimental: MDA-MB-231 cells (breast cancer cells) were starved in 0.5% serum-DMEM for 8 hours. For the migration assay, a total of 5×10^4cells were suspended in 500 μL of serum-free DMEM medium and seeded into the upper chamber of a […] pore size insert. Then, 750 μL of DMEM (containing 10% FBS) with or without the compound of the present application was added to the lower compartment. After incubation at 37° C. for 24 h, migrated cells were washed with PBS, fixed in 4% PFA and stained for 30 min in crystal violet solution (0.1% crystal violet). […] Each insert was photographed in 3 random fields at a magnification of 40×.

wild type CK1δ, sequence (P48730 whole entry): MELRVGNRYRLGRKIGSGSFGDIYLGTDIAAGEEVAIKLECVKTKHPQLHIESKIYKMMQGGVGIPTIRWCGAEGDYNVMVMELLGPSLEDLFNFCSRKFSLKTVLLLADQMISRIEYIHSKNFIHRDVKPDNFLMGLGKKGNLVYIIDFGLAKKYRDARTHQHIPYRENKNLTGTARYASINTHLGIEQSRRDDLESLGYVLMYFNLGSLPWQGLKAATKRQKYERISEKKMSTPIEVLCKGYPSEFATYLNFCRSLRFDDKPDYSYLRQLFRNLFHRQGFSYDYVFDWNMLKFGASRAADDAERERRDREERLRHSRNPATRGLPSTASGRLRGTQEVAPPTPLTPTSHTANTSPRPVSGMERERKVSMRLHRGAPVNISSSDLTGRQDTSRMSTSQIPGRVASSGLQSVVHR

Structure (SMILES) | pIC50 (wild type CK1δ) | further results
C[C@@H]1Cn2nc(-c3ccc(F)cc3)c(-c3ccncc3)c2CO1 [Compound 1-46, (R)-2-(4-fluorophenyl)-6-methyl-3-(pyridin-4-yl)-6,7-dihydro-4H-pyrazolo[5,1-c][1,4]oxazine] | 6.56 | microsomal CLint at 2 μM [1]: 60.1 µL/min/mg; half-life at 2 μM [1]: 23.1 min; microsomal CLint at 2 μM [2]: 44.9 µL/min/mg; half-life at 2 μM [2]: 30.9 min
Nc1cc(-c2c(-c3ccc(F)cc3)nn3c2COCC3)ccn1 [Compound 1-49, 4-(2-(4-fluorophenyl)-6,7-dihydro-4H-pyrazolo[5,1-c][1,4]oxazin-3-yl)pyridin-2-amine] | 6.50 | microsomal CLint at 2 μM [1]: 49.5 µL/min/mg; half-life at 2 μM [1]: 28 min; microsomal CLint at 2 μM [2]: 104 µL/min/mg; half-life at 2 μM [2]: 13.3 min
CC(=O)N1CCn2nc(-c3ccc(F)cc3)c(-c3ccnc(N)c3)c2C1 [Compound 1-50, 1-(3-(2-aminopyridin-4-yl)-2-(4-fluorophenyl)-6,7-dihydropyrazolo[1,5-a]pyrazin-5(4H)-yl)ethan-1-one] | 6.45 | Papp A→B at 2 h, 5 μM (in vitro): 8.5 ×10⁻⁶ cm/s; Papp B→A at 2 h, 5 μM (in vitro): 30.8 ×10⁻⁶ cm/s; efflux ratio at 2 h, 5 μM (in vitro): 3.6
Cc1cn(-c2ccncc2)c(-c2ccc(F)cc2)c1C#N [Compound 2-2, 2-(4-fluorophenyl)-4-methyl-1-(pyridin-4-yl)-1H-pyrrole-3-carbonitrile] | 6.67 | relative migration (%) of cells [3]: reduced; migrated cells [3]: suppressed the migration
Cn1cc(-c2ccnc3c2C(=O)OC3)c(-c2ccc(F)cc2)c1C#N [Compound 5-1, 3-(4-fluorophenyl)-1-methyl-4-(5-oxo-5,7-dihydrofuro[3,4-b]pyridin-4-yl)-1H-pyrrole-2-carbonitrile] | 6.88 | 
Cn1cc(-c2ccnc3[nH]cnc23)c(-c2ccc(F)cc2)c1C#N [Compound 5-4, 3-(4-fluorophenyl)-4-(3H-imidazo[4,5-b]pyridin-7-yl)-1-methyl-1H-pyrrole-2-carbonitrile] | 5.66 | 
O=C1OCc2nccc(-c3cn4c(c3-c3ccc(F)cc3)C(=O)NCC4)c21 [Compound 5-5, 4-(8-(4-fluorophenyl)-1-oxo-1,2,3,4-tetrahydropyrrolo[1,2-a]pyrazin-7-yl)furo[3,4-b]pyridin-5(7H)-one] | 6.50 | 
Cc1cc(-c2ccnc3c2C(=O)OC3)n(-c2ccc(F)cc2)n1 [Compound 6-1, 4-(1-(4-fluorophenyl)-3-methyl-1H-pyrazol-5-yl)furo[3,4-b]pyridin-5(7H)-one] | 7.03 | 
C[C@H]1O[C@@H](O[C@H]2[C@@H](O)C[C@H](O[C@H]3[C@@H](O)C[C@H](O[C@H]4CC[C@@]5(C)[C@H](CC[C@@H]6[C@@H]5C[C@@H](O)[C@]5(C)[C@@H](C7=CC(=O)OC7)CC[C@]65O)C4)O[C@@H]3C)O[C@@H]2C)C[C@H](O)[C@@H]1O [Digoxin, reference compound] |  | efflux ratio at 2 h, 5 μM (in vitro): 56.5
CC(C)NCC(O)COc1cccc2ccccc12 (stereo not shown) [Propranolol, reference compound] |  | efflux ratio at 2 h, 5 μM (in vitro): 0.51

Further lines, with some results ahead:

pIC50 (wild type CK1δ) | Structure (SMILES) | further results
5.15 | Fc1ccc(-c2nn[nH]c2-c2ccncc2)cc1 [Compound 3-7, 4-(4-(4-fluorophenyl)-1H-1,2,3-triazol-5-yl)pyridine] | relative migration (%) of cells [3]: reduced; migrated cells [3]: suppressed the migration
5.97 | Cn1cc(-c2ccncc2)c(-c2ccccc2F)n1 [Compound 3-14, 4-(3-(2-fluorophenyl)-1-methyl-1H-pyrazol-4-yl)pyridine] | 
6.28 | Cn1cc(-c2ccncc2)c(-c2ccc(F)cc2F)n1 [Compound 3-15, 4-(3-(2,4-difluorophenyl)-1-methyl-1H-pyrazol-4-yl)pyridine] | 
6.30 | Cn1cc(-c2ccncc2)c(-c2ccc(F)c(F)c2)n1 [Compound 3-16, 4-(3-(3,4-difluorophenyl)-1-methyl-1H-pyrazol-4-yl)pyridine] | 
5.99 | Cn1cc(-c2ccncc2)c(-c2cc(F)cc(F)c2)n1 [Compound 3-17, 4-(3-(3,5-difluorophenyl)-1-methyl-1H-pyrazol-4-yl)pyridine] | 
5.36 | Cn1cc(-c2ccncc2)c(-c2ccc(F)cc2Cl)n1 [Compound 3-18, 4-(3-(2-chloro-4-fluorophenyl)-1-methyl-1H-pyrazol-4-yl)pyridine] | 
6.55 | Cn1cc(-c2ccncc2)c(-c2cccc(F)c2)n1 [Compound 3-19, 4-(3-(3-fluorophenyl)-1-methyl-1H-pyrazol-4-yl)pyridine] | 
5.44 | Fc1ccc(-c2nocc2-c2ccncc2)cc1 [Compound 3-20, 3-(4-fluorophenyl)-4-(pyridin-4-yl)isoxazole] | 
6.67 | Fc1ccc(-n2nncc2-c2ccncc2)cc1 [Compound 4-1, 4-(1-(4-fluorophenyl)-1H-1,2,3-triazol-5-yl)pyridine] | 
